Source: patent US20260327263A1, “Anti-Bacterial Peptides” (priority 2023, published 2026)
Values joined by “and” are separate entries in the source; they are usually repeats but may differ in a detail not shown here. Equal values may be shown once. “Also recorded” adds a separate entry of the source. Where no end group is shown, it is not given here.

Tests used:
[1] = test system: pathogens isolated from the infected tissues of DFU patients; test: Antibacterial test on pathogens from infected DFU tissues; format: cell-based
Protocol: The varied colours and morphologies highlight the presence of multiple species and a diverse bacterial population within the infected tissues. Method: Freshly debrided infected tissues from DFU patients are weighed and immersed in 2 ml of MHB (Mueller-Hinton Broth) media for 48 hours to soften the tissues, facilitating the release of bacteria. These samples are subsequently sonicated for 1 minute at a 15A amplitude using a water bath sonicator to release the bacteria. The resultant slurry is plated on MHB media supplemented with 1.5% agar to isolate all bacteria. These bacterial isolates are then evaluated for their antibacterial efficacy following the CLSI (Clinical and Laboratory Standards Institute) guidelines.
In some examples, the effective bacteria killing concentration range for the variant peptides can be, but is not limited to at least about 1.5 μM, at least about 2 μM, at least about 2.5 μM, at least about 5 μM, at least about 7.5 μM, at least about 10 μM, at least about 12.5 μM, at least about 15 μM, at least about 15 μM, at least about 17.5 μM, at least about 20 μM, at least about 25 μM, at least about 35 μM, or at least about 45 μM. In one example, the effective biofilm disruption concentration ranges from about 1.5 μM-25 μM or 1.5 μM-50 μM. In another example, the concentration is between about 40 μM to 50 μM.

[2] = test system: bacteria; test: Comparison of wild-type peptide E1A to V8LQ19L (Table 14)
From the text: Active peptide sequences based on ENO3 exerting significant bactericidal antibiofilm properties, and relevant to chronic wound healing are previously disclosed. The previously disclosed antimicrobial peptides (AMPs) are longer (>22-residues) in length, which would be more costly in production.

[3] = test system: bacteria; test: Comparison of lead peptide to standard of care (Table 16)
[4] = test system: Pseudomonas aeruginosa (PA); test: Broth microdilution anti-bacterial assay (CLSI), Pseudomonas aeruginosa; format: cell-based, Pseudomonas aeruginosa (ATCC 14213); details: PA; for MIC: overnight, 37° C., ≥99% inhibition; for MBC: ≥99% killing
[5] = Comparison of AMPs in clinical trial with V8LQ19L (Table 13); details: ✓ / X
[6] = test system: Pseudomonas aeruginosa (PA); test: Murine excisional wound infection model (PA); format: in vivo, mouse infected with Pseudomonas aeruginosa; details: mouse; 1x MBC (6.25 μM), 24 h treatment, vs PBS; p<0.05
Protocol: Excisional wounds in mice are infected with Pseudomonas aeruginosa (PA) for 24 hrs followed by 24 hrs of treatment with E1AM2 or PBS. Each circle represents a single mouse. Statistical analysis was performed by the two-tailed t-test using GraphPad, *p<0.05.
Excisional wounds infected with PA for 24 hours being treated for 24 hours with the E1AM2 V8LQ19L hydrogel at its 1X MBC concentration, compared with hydrogel-only treatment in a mouse model. […] Each circle in the graph represents one mouse. Statistical significance was determined using a t-test, with *p<0.05. The data are presented as colony-forming unit counts presented as means±SEM. […] Collectively, the E1AM2 V8LQ19L peptide showcases unique functionality, combining antibacterial effectiveness and biocompatibility for dermal applications.
The murine wound infection model was carried out as described in 4 with minor modifications. Before infection, PA strain was diluted to an OD ~0.5, and normalized to 1-3×10^7 CFU/ml. A 6 mm biopsy punch (Integra Miltex, New York, USA) was used to create a full-thickness wound, and an inoculum of ~10^5 CFU of the bacteria in a 5 μl volume was applied. The wound was sealed with a Finn chamber on a Scanpor tape (Smart Practice, Phoenix, AZ, USA), and the chamber was fixed to the skin via Tegaderm patch (3M™, Minnesota, USA). […]

[7] = test system: mixed bacterial infection (PA, SA and ST); test: Broth microdilution, mixed bacterial infection; format: cell-based; details: mixed infection
Protocol: Chronic wounds mostly present mixed infections where numerous pathogens colonize together.
Examination of the potency of modified short peptides against PA and SA strains was performed by using the broth microdilution protocol from the Clinical and Laboratory Standards Institute (CLSI) guidelines (CLSI 2012) as described. Briefly, five freshly plated bacteria colonies were grown in cation adjusted MH2 broth (BD Biosciences) in a shaker incubator at 37° C., 220 RPM. Cells were grown to an optical density (OD600) of ~0.2 measured using a Microplate Spectrophotometer (Molecular Devices Spectra Max Plus). 100 μL of microbial culture containing ~5×10^5 CFU/mL of bacteria in the respective broths were introduced into each well containing 100 μL of peptides and incubated overnight at 37° C. Next, to check the bactericidal effects, 100 μL from each well was transferred and spread on sterile MH2 agar plates. The plates were incubated overnight at 37° C. and the number of colonies forming units (CFU) were calculated the following day. Readings of bacteria grown in media without any treatments were normalized to 100% as media control. For the mixed infection study, three freshly plated bacteria colonies each from PA, SA and ST plates were grown together in cation adjusted MH2 broth and proceeded as described above.

KKLLKKWLKLSKKALKLALSL-NH2 [V8LQ19L]
elimination of pathogens in DFU tissue (in words) ([1]; FIG. 11): effective elimination of pathogens | elimination of bacteria from DFU tissue ([1]; at 50 μM): over 99% | Cationicity [2]: Cationic (bacterial membrane | Mechanism of killing bacteria [2]: Membrane disintegration | MIC/MBC ([2]; bacteria not named in Table 14): 1.56 µM | AMR Prevention [3]: Yes | Negligible Cytotoxicity [3]: Yes | No Allergic/Adverse Reactions [3]: Yes | Targeted bacteria-specific eradication [3]: Yes | Wound Healing Support [3]: Yes | Antibacterial Efficacy ([3]; Broad- (spectrum continues on next line)): Broad- | MIC [4]: 1.56 µM | MIC ([4]; listed as VBLQ19L): 1.58 µM | MBC [4]: 1.56 µM | MBC ([4]; listed as VBLQ19L): 1.58 µM and 1.56 µM | Broad spectrum activity [5]: ✓ | Healing support [5]: ✓

E1AM2: untagged (E1AM2), KKLLKKWVKLSKKALKLAQSL
PA infection at wound site (CFU) [6]: effective reduction of PA infection; also recorded: significant bacterial clearance at the wound site | MBC [7]: 6.25 µM
